Blank lines part the entries; values can stand above or below the compound they belong to.
Experiments:
[1] = molecular target: T1, Human recombinant adenosine A1 receptors (Homo sapiens, UniProt P30542); test: Human adenosine A1 receptor binding assay with [3H] DPCPX (purine compounds, Example 2.2); details: membranes of CHO-K1 cells
T1 construct: expressed in transfected cells; host or cells: CHO-K1, membrane preparation
T1 sequence (P30542 1-326): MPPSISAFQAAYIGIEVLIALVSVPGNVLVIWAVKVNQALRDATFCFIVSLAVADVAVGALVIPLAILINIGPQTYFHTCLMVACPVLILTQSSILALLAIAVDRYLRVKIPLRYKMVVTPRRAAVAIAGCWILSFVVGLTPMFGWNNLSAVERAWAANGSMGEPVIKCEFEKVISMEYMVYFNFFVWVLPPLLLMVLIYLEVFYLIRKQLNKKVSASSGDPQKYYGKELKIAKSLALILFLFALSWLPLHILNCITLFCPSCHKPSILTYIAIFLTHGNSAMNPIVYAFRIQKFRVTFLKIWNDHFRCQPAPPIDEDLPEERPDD
Experimental: Test compound is weighed, dissolved in DMSO to make a stock solution of 10 mM, diluted with DMSO to prepare working solutions, then 100-fold diluted to the indicated concentrations. Human recombinant adenosine A1 receptors expressed in CHO-K1 cells were used to prepare membranes in incubation buffer (20 mM HEPES (4-(2-hydroxyethyl)-1-piperazineethanesulfonic acid) pH 7.4, 10 mM MgCl2, 100 mM NaCl). Test compound or vehicle (2.2 μL) was added in 200 μL of membranes and incubated with 20 μL of 1 nM [^3H] DPCPX (8-cyclopentyl-1,3-dipropylxanthine) for 90 minutes at 25° C. Non-specific binding was estimated in the presence of 100 μM R(−)-PIA ((R)—N-(1-methyl-2-phenylethyl)adenosine). The incubation was stopped by vacuum filtration onto 0.3% PEI (polyethylenimine) presoaked GF/B filters using a harvester followed by four washes with ice-cold 50 mM Tris-HCl, pH 7.4, and the radioactivity on GF/B filtermats counted in a scintillation counter (PerkinElmer Topcount™) to determine [^3H] DPCPX specifically bound. Final concentration of vehicle DMSO is 1%. Data is fitted using the non-linear curve fitting routines in Meth-IQ software (ID Business Solutions Ltd., UK).
The binding affinity of selected compounds against A1 receptor was assessed using the binding assay described above.

[2] = molecular target: T2, Human recombinant adenosine A2A receptor (Homo sapiens, UniProt P29274); test: A2A receptor (A2AR) SPA binding assay with [3H] SCH58261; design: expressed in transfected cells; host or cells: HEK293 (HKE293 [sic]), membrane preparation; details: [3H] SCH58261 radioligand
Experimental: Test compound is weighed, then dissolved in 100% DMSO to prepare 20 mM stock solution. Dilute the stock solution with DMSO into 100× final concentration, and then use this DMSO solution to perform 3-fold serial dilution for totally 12 concentrations with DMSO. 10-fold diluting the serial dilutions with assay buffer to the working concentrations. […] SCH58261 as the radioligand. The assay buffer is prepared with DPBS containing 10 mM MgCl2. 5 μL of compound working solutions (a total of 12 concentrations starting from 1 or 3 μM, 1/3 dilution) is transferred to the wells by the 12-channel pipette. A2AR membrane is pre-incubated with adenosine deaminase for 15 min at room temperature. Then SPA beads are added and the membrane-bead suspension mixture is incubated for 30 min at room temperature with the rotary mixer. […] SCH58261 radioligand solution. Final concentration of DMSO in the A2AR SPA binding assay is 1%. Sealing the plates and incubate for 1 hr at 27° C. with vigorous mixing on a plate shaker. After 1 hr, centrifuge the plate (1000 rpm, 1 min), and settle the plate for 5 min prior to counting. The signal of radiation is measured by the Microbeta2. […] Non-specific binding refers to the wells containing reaction system with the presence of 100 μM SCH58261. The dose-response curve is fitted with GraphPad Prism 5 and IC50 values are calculated by log(inhibitor) vs. response—Variable slope program with the following formula: Y=Bottom+(Top−Bottom)/(1+10^[…] ligand concentration used in assay/radio ligand Kd)
The binding affinity of selected compounds against A2A receptor was assessed using the SPA binding assay described above.

human recombinant A2AR = human recombinant A2AR (Homo sapiens, UniProt P29274); test: Human A2A functional cAMP assay in human recombinant A2AR stable cell line (HEK293)
Experimental: cAMP assay was performed on human recombinant A2AR stable cell line (HEK293). The cells were cultured at 37° C. and 5% CO2 with culture medium (90% DMEM+10% FBS+500 μg/mL G418). […] Then, 100 nL compounds were transferred by Echo machine with 12 doses respectively. Cells were collected with stimulation buffer (1×HBSS with 5 mM HEPES+0.05 mM IBMX+0.1% BSA) and plated the cells at the density of 5,000 cells/well, centrifuged at 600 rpm for 3 min and then incubation with compounds at room temperature for 60 min. After that, 5 μL 4× Eu-cAMP tracer solution and 5 μL 4× ULight™-anti-cAMP solution were added into the cells, centrifuged at 600 rpm for 3 min and incubated for 60 min. cAMP signal was detected with Envision. GraphPad Prism (version 6.0) was used for the data analysis.
The A2A receptor antagonistic activity of selected compounds was assessed using the cAMP assay described above.

[3] = molecular target: T2, Human recombinant adenosine A2A receptor; test: Human adenosine A2A receptor binding assay with [3H] CGS-21680 (Example 4.2); details: summary of Table 5, binding assays of Examples 4.1 and 4.2
Experimental: Test compound is weighed, dissolved in DMSO to make a stock solution of 10 mM, diluted with DMSO to prepare working solutions, then 100-fold diluted to the indicated concentrations. Human recombinant adenosine A2A receptors expressed in HEK-293 cells were used to prepare membranes in incubation buffer (50 mM Tris-HCl, pH 7.4, 10 mM MgCl2, 1 mM EDTA, 2 U/ml Adenosine Deaminase). Test compound or vehicle (2.2 μL) was added in 200 μL of membranes and incubated with 20 μL of 50 nM [^3H] […] Non-specific binding was estimated in the presence of 50 μM NECA (5′-N-ethylcarboxamidoadenosine). The incubation was stopped by vacuum filtration onto 0.3% PEI (polyethylenimine) presoaked GF/B filters using a harvester followed by four washes with ice-cold 50 mM Tris-HCl, pH 7.4, and the radioactivity on GF/B filtermats counted in a scintillation counter (PerkinElmer Topcount™) to determine [^3H] […] Final concentration of vehicle DMSO is 1%.

T2 sequence (P29274 whole entry): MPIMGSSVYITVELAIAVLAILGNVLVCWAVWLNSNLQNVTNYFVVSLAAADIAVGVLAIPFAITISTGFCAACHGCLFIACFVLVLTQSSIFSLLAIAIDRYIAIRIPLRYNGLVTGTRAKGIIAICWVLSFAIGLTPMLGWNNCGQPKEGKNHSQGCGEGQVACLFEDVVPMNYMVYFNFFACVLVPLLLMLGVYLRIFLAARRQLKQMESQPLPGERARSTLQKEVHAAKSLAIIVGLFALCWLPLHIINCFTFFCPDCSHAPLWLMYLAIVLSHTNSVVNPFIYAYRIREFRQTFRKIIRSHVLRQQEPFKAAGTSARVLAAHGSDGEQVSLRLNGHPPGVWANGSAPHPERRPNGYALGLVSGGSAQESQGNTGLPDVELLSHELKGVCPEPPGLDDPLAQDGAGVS
human recombinant A2AR, sequence (P29274 whole entry): as above

Compound: N#Cc1cccc(-c2nc(N)nc3c2ncn3Cc2ccc(N)cc2)c1 [Compound 101, 3-(2-amino-9-(4-aminobenzyl)-9H-purin-6-yl) benzonitrile]
Ki [1]: > 1000 nM | Ki [2]: 10 to 100 nM | IC50 (human recombinant A2AR): > 1000 nM

Compound: N#Cc1cccc(-c2nc(N)nc3c2ncn3Cc2ccc(N)cc2)c1F [Compound 102, 3-(2-amino-9-(4-aminobenzyl)-9H-purin-6-yl)-2-fluorobenzonitrile]
Ki [2]: 100 to 500 nM

Compound: N#Cc1cccc(-c2nc(N)nc3c2ncn3Cc2ccc(N)cc2F)c1F [Compound 103, 3-(2-amino-9-(4-amino-2-fluorobenzyl)-9H-purin-6-yl)-2-fluorobenzonitrile]
Ki [1]: > 1000 nM | Ki [2]: 10 to 100 nM | IC50 (human recombinant A2AR): > 1000 nM

Compound: Cc1cc(Cn2cnc3c(-c4cccc(C#N)c4)nc(N)nc32)ccc1N [Compound 104, 3-(2-amino-9-(4-amino-3-methylbenzyl)-9H-purin-6-yl)benzonitrile]
Ki [1]: > 1000 nM | Ki [2]: < 10 nM | IC50 (human recombinant A2AR): < 300 nM

Compound: Cc1c(C#N)cccc1-c1nc(N)nc2c1ncn2Cc1ccc(N)cc1 [Compound 105, 3-(2-amino-9-(4-aminobenzyl)-9H-purin-6-yl)-2-methylbenzonitrile]
Ki [2]: > 500 nM

Compound: Cc1cc(Cn2cnc3c(-c4cccc(C#N)c4F)nc(N)nc32)ccc1N [Compound 106, 3-(2-amino-9-(4-amino-3-methylbenzyl)-9H-purin-6-yl)-2-fluorobenzonitrile]
Ki [1]: > 1000 nM | Ki [2]: 10 to 100 nM

Compound: N#Cc1cccc(-c2nc(N)nc3c2ncn3Cc2c(F)cc(N)cc2F)c1 [Compound 107, 3-(2-amino-9-(4-amino-2,6-difluorobenzyl)-9H-purin-6-yl)benzonitrile]
Ki [1]: ≤ 300 nM | Ki [2]: < 10 nM | IC50 (human recombinant A2AR): < 300 nM

Compound: N#Cc1cccc(-c2nc(N)nc3c2ncn3Cc2c(F)cc(N)cc2F)c1F [Compound 108, 3-(2-amino-9-(4-amino-2,6-difluorobenzyl)-9H-purin-6-yl)-2-fluorobenzonitrile]
Ki [1]: 300 to 1000 nM | Ki [2]: 10 to 100 nM | IC50 (human recombinant A2AR): 300 to 1000 nM

Compound: N#Cc1cccc(-c2nc(N)nc3c2ncn3Cc2ccc(N)cc2F)c1 [Compound 109, 3-(2-amino-9-(4-amino-2-fluorobenzyl)-9H-purin-6-yl)benzonitrile]
Ki [1]: 300 to 1000 nM | Ki [2]: < 10 nM | IC50 (human recombinant A2AR): < 300 nM

Compound: N#Cc1cccc(-c2nc(N)nc3c2ncn3Cc2ccc(N)c(C(F)(F)F)c2)c1 [Compound 110, 3-[2-amino-9-[[4-amino-3-(trifluoromethyl)phenyl]methyl]purin-6-yl]benzonitrile]
Ki [1]: 300 to 1000 nM | Ki [2]: < 10 nM | IC50 (human recombinant A2AR): < 300 nM

Compound: N#Cc1cccc(-c2nc(N)nc3c2ncn3Cc2ccc(N)c(C(F)(F)F)c2)c1F [Compound 111, 3-[2-amino-9-[[4-amino-3-(trifluoromethyl)phenyl]methyl]purin-6-yl]2-fluorobenzonitrile]
Ki [1]: > 1000 nM | Ki [2]: 10 to 100 nM | IC50 (human recombinant A2AR): > 1000 nM

Compound: N#Cc1cccc(-c2nc(N)nc3c2ncn3Cc2c(F)cccc2F)c1 [Compound 112, 3-(2-amino-9-(2,6-difluorobenzyl)-9H-purin-6-yl) benzonitrile]
Ki [1]: ≤ 300 nM | Ki [2]: < 10 nM | IC50 (human recombinant A2AR): < 300 nM

Compound: N#Cc1cccc(-c2nc(N)nc3c2ncn3Cc2c(F)cccc2F)c1F [Compound 113, 3-(2-amino-9-(2,6-difluorobenzyl)-9H-purin-6-yl)-2-fluorobenzonitrile]
Ki [1]: 300 to 1000 nM | Ki [2]: 10 to 100 nM | IC50 (human recombinant A2AR): 300 to 1000 nM

Compound: Cc1c(C#N)cccc1-c1nc(N)nc2c1ncn2Cc1c(F)cccc1F [Compound 114, 3-(2-amino-9-(2,6-difluorobenzyl)-9H-purin-6-yl)-2-methylbenzonitrile]
Ki [1]: > 1000 nM | Ki [2]: 10 to 100 nM

Compound: N#Cc1cc(-c2nc(N)nc3c2ncn3Cc2ccc(N)cc2)ccn1 [Compound 118, 4-[2-amino-9-[(4-aminophenyl)methyl]purin-6-yl]pyridine-2-carbonitrile]
Ki [2]: > 500 nM

Compound: N#Cc1cccc(-c2nc(N)nc3c2ncn3Cc2ccc(N)cc2F)n1 [Compound 119, 6-[2-amino-9-[(4-amino-2-fluoro-phenyl)methyl]purin-6-yl]pyridine-2-carbonitrile]
Ki [2]: 100 to 500 nM

The next lines start with the values.

Ki [1]: 300 to 1000 nM | Ki [2]: < 10 nM | IC50 (human recombinant A2AR): < 300 nM
Compound: N#Cc1ccnc(-c2nc(N)nc3c2ncn3Cc2ccc(N)cc2F)c1 [Compound 120, 2-[2-amino-9-[(4-amino-2-fluoro-phenyl)methyl]purin-6-yl]pyridine-4-carbonitrile]

Ki [1]: ≤ 300 nM | Ki [2]: < 10 nM | IC50 (human recombinant A2AR): < 300 nM
Compound: N#Cc1ccnc(-c2nc(N)nc3c2ncn3Cc2c(F)cc(N)cc2F)c1 [Compound 124, 2-[2-amino-9-[(4-amino-2,6-difluoro-phenyl)methyl]purin-6-yl]pyridine-4-carbonitrile]

Ki [2]: 100 to 500 nM
Compound: N#Cc1cncc(-c2nc(N)nc3c2ncn3Cc2c(F)cc(N)cc2F)c1 [Compound 125, 5-[2-amino-9-[(4-amino-2,6-difluoro-phenyl)methyl]purin-6-yl]pyridine-3-carbonitrile]

Ki [2]: 10 to 100 nM
Compound: N#Cc1cc(-c2nc(N)nc3c2ncn3Cc2c(F)cc(N)cc2F)ccn1 [Compound 126, 4-[2-amino-9-[(4-amino-2,6-difluoro-phenyl)methyl]purin-6-yl]pyridine-2-carbonitrile]

Ki [1]: 300 to 1000 nM | Ki [2]: < 10 nM | IC50 (human recombinant A2AR): 300 to 1000 nM
Compound: Cc1cc(Cn2cnc3c(-c4cc(C#N)ccn4)nc(N)nc32)ccc1N [Compound 128, 2-[2-amino-9-[(4-amino-3-methyl-phenyl)methyl]purin-6-yl]pyridine-4-carbonitrile]

Ki [1]: ≤ 300 nM | Ki [2]: < 10 nM | IC50 (human recombinant A2AR): < 300 nM
Compound: N#Cc1ccnc(-c2nc(N)nc3c2ncn3Cc2c(F)cccc2F)c1 [Compound 132, 2-[2-amino-9-[(2,6-difluorophenyl)methyl]purin-6-yl]pyridine-4-carbonitrile]

Ki [2]: 10 to 100 nM
Compound: N#Cc1cc(-c2nc(N)nc3c2ncn3Cc2c(F)cccc2F)ccn1 [Compound 134, 4-[2-amino-9-[(2,6-difluorophenyl)methyl]purin-6-yl]pyridine-2-carbonitrile]

activity as dual antagonists of both A2A and A1 receptors (in words) [3]: potent activity as dual antagonists
Compound: N#Cc1cccc(-c2nc(N)nc3c2cnn3Cc2ccc(N)cc2F)c1F [Compound 203, 3-(6-amino-1-(4-amino-2-fluorobenzyl)-1H-pyrazolo[3,4-d]pyrimidin-4-yl)-2-fluorobenzonitrile]

activity as dual antagonists of both A2A and A1 receptors (in words) [3]: potent activity as dual antagonists
Compound: Cc1cc(Cn2ncc3c(-c4cccc(C#N)c4F)nc(N)nc32)ccc1N [Compound 206, 3-(6-amino-1-(4-amino-3-methylbenzyl)-1H-pyrazolo[3,4-d]pyrimidin-4-yl)-2-fluorobenzonitrile]

activity as dual antagonists of both A2A and A1 receptors (in words) [3]: potent activity as dual antagonists
Compound: N#Cc1cccc(-c2nc(N)nc3c2cnn3Cc2c(F)cc(N)cc2F)c1 [Compound 207, 3-(6-amino-1-(4-amino-2,6-difluorobenzyl)-1H-pyrazolo[3,4-d]pyrimidin-4-yl)benzonitrile]

From patent US12606564B2, “Adenosine receptor antagonist compounds” (ILDONG PHARMACEUTICAL CO., LTD., priority 2019, dated 2026)
